Patent US20070293568A1, “Neurocyte Protective Agent” (priority 2006, published 2007)

Columns and labels:
[1] = test system: TH positive cell specific MnSOD-deficient mice (KO mice); assay: Body weight change of KO mice given YAX in the diet; type: in vivo; settings: overall conclusion from body weight, life span and behavior in TH positive cell specific MnSOD-deficient mice
From the text: As genetically modified mice serving as models for neurodegeneration, in which MnSOD has been specifically deficient in dopamine cells of the substantia nigra and noradrenaline cells of the locus ceruleus in the central nervous system, tyrosine hydroxylase (TH) positive cell specific MnSOD-deficient mice were generated based on the method described in WO 2004/014131. Specifically, first, a homozygous MnSOD flox mouse (lox/lox, +/+) was mated with a TH-Cre transgenic mouse controlled by a TH (tyrosine hydroxylase) promoter, so that heterozygous mice (lox/w, Cre/+) having the TH-Cre transgene were generated. Then, the heterozygous mouse and a MnSOD flox mouse were mated to generate the TH positive cell specific MnSOD-deficient mice (lox/lox, Cre/+) of interest.
The YAX prepared in Preparation Example 2 was used as the astaxanthin, and this was administered with the diet. […] It should be noted that for comparison, the KO mice in the control group fed with an ordinary diet not containing YAX were monitored in the same manner.
The body weight was measured once a week, and a Student's t-test was performed. The life span was analyzed using the Kaplan-Meier method. […] The behavior was analyzed by the footprinting test. […] Specifically, ink is applied to the hind feet of the mice and the mice are allowed to walk, and the width of the footprints left behind is analyzed. […]

[2] = test system: mice, cerebral ischemia/reperfusion; settings: reperfusing after cerebral ischemia, astaxanthin administered; cited from earlier work
[3] = test system: lipid peroxide in the blood; settings: cited from earlier work

In the case of CC1=C(/C=C/C(C)=C/C=C/C(C)=C/C=C/C=C(C)/C=C/C=C(C)/C=C/C2=C(C)C(=O)[C@@H](O)CC2(C)C)C(C)(C)C[C@H](O)C1=O [astaxanthin], the neurocyte protective activity [1] is listed as “powerful neurocyte protective activity”, the “depression in motor ability” value [2] is listed as “suppressed” and the “lipid peroxide in the blood” value [3] is listed as “suppresses”.
